Patent publication US20230364069A1, “METHOD FOR TREATING NON-ALCOHOLIC STEATOHEPATITIS THROUGH CO-ADMINISTRATION OF CURCUMIN DERIVATIVE AND TGF-B RECEPTOR INHIBITOR” (UNIVERSITY INDUSTRY FOUNDATION, YONSEI UNIVERSITY WONJU …, priority 2021, published 2023)

How the values were obtained:
[1] = tested on: mouse hepatocyte cell lines (AML12); experiment: Fat accumulation induced by oleic acid (BODIPY staining, Western blotting); type: cell-based; conditions: 500 μM oleic acid, 24 hours; for fat increased by oleic acid (BODIPY staining, adipophilin and SREBP1C Western blotting): 1 μM Cur5-8, 10 μM EW-7197, FIGS. 6 and 7
Description: Fat accumulation was induced in hepatocytes with oleic acid, curcumin derivatives were administered, and fat synthesis and degradation were confirmed.
Specifically, oleic acid was dissolved in 0.2% bovine serum albumin (BSA) at a concentration of 500 μM, and the cells of Example 1-1 were cultured for 24 hours and treated with the resultant, and also treated with 1 μM curcumin (Cur), 1 μM curcumin 5-8 (Cur5-8), 1 μM curcumin 4-8 (Cur4-8), and 1 μM curcumin 5-14 (Cur5-14) for the same period of time. Thereafter, BODIPY-fatty acid solution (Sigma, 1 mg/mL of stock DMSO solution was diluted with PBS 1× to obtain a final concentration of 0.2 μg/mL) was administered to cells cultured in an incubator of 5% CO2 at 37° C. and cultured for one hour. After washing with PBS 1×, stained cells were observed.
In addition, the cells of Example 1-1 were treated with oleic acid in the same manner as described above and treated with 1 μM curcumin (Cur), 1 μM Curcumin 5-8 (Cur5-8), and 10 μM EW-7197 (EW), and then BODIPY-fatty acid staining was performed in the same manner as above. In addition, the cells were collected after treatment, and the protein expressions of adipophilin as a fat accumulation inducing factor and SREBP1C as a fat metabolism regulator in the collected cells were checked by Western blotting. To this end, Western blotting was performed by using the collected cells in the same method as described in <Example 1-3>. At this time, an anti-β-actin antibody, an anti-adipophilin antibody, and an anti-SREBP1C antibody were used as primary antibodies.
The mouse hepatocyte cell lines were treated with oleic acid by the method described in Example 1-4 and were simultaneously treated with each of curcumin (Cur) and curcumin derivatives (Cur5-8, Cur4-8, and Cur5-14) for 24 hours, and fat was stained by BODIPY staining method. […]

[2] = tested on: mouse hepatocyte cell lines (AML12); experiment: TGF-β-induced fibrosis, co-administration of curcumin derivative and EW-7197 (epithelial-mesenchymal conversion, BODIPY, α-SMA staining, Western blotting); type: cell-based; conditions: 2 ng/ml TGF-β, 24 hours, 1 μM Cur or Cur5-8, 10 μM EW-7197; for epithelial-mesenchymal conversion caused by TGF-β: FIG. 8; for liver fibrosis (α-SMA staining, fibrosis marker Western blotting): FIGS. 8, 10, 11
Description: Fibrosis was induced in hepatocytes with TGF-β, a curcumin derivative and a TGF-β receptor inhibitor were co-administered, and then fibrosis and fat synthesis and degradation were checked.
Specifically, 2 ng/ml of TGF-β was administered to the cells of Example 1-1, the cells were divided into administration groups of vehicle (Veh), 1 μM curcumin (Cur), 1 μM curcumin 5-8 (Cur5-8), 0.5 μM EW-7197 (EW0.5), 10 μM EW-7197 (EW or EW10), 1 μM curcumin and 0.5 μM EW-7197 (EW0.5+Cur), 1 μM curcumin and 10 μM EW-7197 (EW+Cur or EW10+Cur), 1 μM curcumin 5-8 and 0.5 μM EW-7197 (EW0.5+Cur5-8), 1 μM curcumin 5-8 and 10 μM EW-7197 (EW+Cur5-8 or EW10+Cur5-8), respective samples were administered, and culturing was performed for 24 hours. The control group (Con) was not treated with either TGF-β or the sample. […] After washing with PBS 1×, stained cells were observed.
In addition, in order to check the degree of fibrosis of hepatocytes, the cells cultured for 24 hours were fixed with 4% paraformaldehyde and then stained by using α-SMA (Santa Cruz Biotechnology, Inc., Dallas, Texas, USA), an Alexafluor 488 (Cell Signaling Technology, Danvers, Massachusetts, USA) antibody, and DAPI (Abcam plc., Cambridge, MA, USA). The cells were mounted with a mounting solution (Fisher Scientific, Hampton, Rockingham, USA), the manufactured sample was photographed using a confocal microscope to obtain photographs of stained cells, and the degree of color development in the photographs of the stained cells was analyzed with the ImageJ program.
In addition, in order to confirm the degree of fibrosis of hepatocytes, the cells cultured for 24 hours were collected, and protein expressions of α-SMA, Collagen I (Coll), p-SMAD2, and p-SMAD3 were checked by Western blotting with fibrosis markers in the same method as described in <Example 1-3>.
In order to check a synergistic effect of inhibiting fibrosis caused by a TGF-β and inhibiting fat accumulation caused thereby in case of co-administration of a curcumin derivative (Cur5-8) and a TGF-β receptor inhibitor (EW-7197), epithelial-mesenchymal conversion of hepatocytes was confirmed through a cell experiment by the method described in Example 1-5, and BODIPY staining and α-SMA staining were performed. Also, protein expressions of α-SMA, Collagen I p-SMAD2, and p-SMAD3 were checked by Western blotting.

Compound | fat increased by oleic acid (BODIPY staining, adipophilin and SREBP1C Western blotting) [1] | epithelial-mesenchymal conversion caused by TGF-β [2] | fat accumulation / adipogenesis in cells (BODIPY staining) ([2]; FIGS. 8, 9) | liver fibrosis (α-SMA staining, fibrosis marker Western blotting) [2] | fat increased by oleic acid (BODIPY staining) ([1]; 1 μM compound, FIGS. 4 and 5)
Cc1cccc(-c2[nH]c(CNc3ccccc3F)nc2-c2ccc3ncnn3c2)n1 [EW-7197, N-(2-fluorophenyl)-5-(6-methyl-2-pyridinyl)-4-[1,2,4]triazolo[1,5-a]pyridin-6-yl-1H-imidazole-2-methanamine] | promotes the fat increase caused by oleic acid | inhibited | fat accumulation in cells was exhibited | inhibited | 
COc1cc(/C=C/C(=O)c2cccc(NC(=O)C(C)C)c2)ccc1O [Cur5-8, N-{3-[(2E)-3-(4-hydroxy-3-methoxyphenyl)prop-2-enoyl]phenyl}-2-methylpropanamide] | reduced the fat increased by oleic acid | not inhibited |  | liver fibrosis was induced | most effectively reduced fat
